# Measurements as given in patent US8012983B2, “Substituted triazolopyrazines useful for the treatment of degenerative and inflammatory diseases” (Galapagos NV, priority 2008, dated 2011).
# Target: T1, MAPKAPK5 (Homo sapiens, UniProt Q8IW41)
# T1 sequence (Q8IW41 1-471 isoform Q8IW41-2): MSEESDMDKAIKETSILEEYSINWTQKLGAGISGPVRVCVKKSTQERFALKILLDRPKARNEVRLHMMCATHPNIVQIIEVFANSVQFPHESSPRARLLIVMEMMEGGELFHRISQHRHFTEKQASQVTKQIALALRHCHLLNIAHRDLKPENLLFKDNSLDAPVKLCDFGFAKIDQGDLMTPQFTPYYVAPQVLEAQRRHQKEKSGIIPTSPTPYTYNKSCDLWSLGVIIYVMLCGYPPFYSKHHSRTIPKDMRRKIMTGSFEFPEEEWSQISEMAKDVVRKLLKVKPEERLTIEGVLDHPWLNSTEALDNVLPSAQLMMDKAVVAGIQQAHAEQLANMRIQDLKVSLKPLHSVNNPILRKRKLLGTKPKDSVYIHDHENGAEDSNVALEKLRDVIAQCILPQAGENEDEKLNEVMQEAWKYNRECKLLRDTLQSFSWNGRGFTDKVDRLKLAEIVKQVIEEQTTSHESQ
# Assay: MAPKAP-K5 FlashPlate kinase assay
# Format: biochemical
# Conditions: 0.6 μM ATP, 30 minutes, room temperature
# Description: MAPKAP-K5 reactions are performed in FlashPlate format using 0.1 or 0.2 μCi 33P-ATP; 0.6 μM ATP; 1 mU MAPKAP-K5; 3 μM MAPKAP-K5 peptide substrate, incubated at room temperature for 30 minutes.
# The MAPKAP-K5 kinase reaction is performed in a 384 well polypropylene plate (Matrix Technologies) and then transferred to a streptavidin-coated 384 well flashplate (Perkin-Elmer). To wells containing 2 μL test compound or standard inhibitor, 13 μL Enzyme mix or diluent are added using a Hydra (Robbins Scientific). Reactions are started by addition of 10 μL of [2.5×] substrate cocktail using a Multidrop (Thermo-Labsystems), to give final concentrations in the assay of: • 1 mU MAPKAP-K5 • 3 μM MAPKAP-K5 peptide substrate • 0.6 μM ATP • 0.004 μCi [33P]-γ-ATP/μL • 1× reaction buffer
# Plates are incubated at room temperature for 30 minutes. Reactions are terminated by the addition of 25 μL EDTA (50 mM) to each well using a Micro-fill (Biotek). Reactions are transferred to a streptavidin-coated flashplate using a Zymark robotic system. Plates are incubated for 60 minutes at room temperature. All wells are washed 3 times with 100 μl phosphate buffered saline using a Tecan plate washer. Radioactivity is determined by scintillation counting of the flashplate (empty wells) on a Packard TopCount.
# Enzyme Mix: • Enzyme • 50 mM Tris Hcl (pH 7.5) • 0.1 mM EGTA • 2 mM DTT • 1 mg/mL BSA
# Reaction Buffer: • 50 mM Tris Hcl (pH 7.5) • 0.1 mM EGTA • 10 mM Magnesium acetate • 2 mM DTT
row,Structure (SMILES),IC50 [nM]
1,"CC(C)(C)N1C[C@@H]2C[C@H]1CN2c1ccc(Nc2ncc(-c3ccc4c(c3)CNC4=O)n3ncnc23)cc1 [Compound 16, 5-{8-(4-((1S,4S)-5-tert-butyl-2,5-diazabicyclo[2.2.1]heptan-2-yl)phenylamino)-[1,2,4]triazolo-[1,5-a]pyrazin-5-yl}-2,3-dihydro-isoindol-1-one]",101 to 500
2,"CC(C)N1C[C@@H]2C[C@H]1CN2c1ccc(Nc2ncc(-c3cc[nH]c(=O)c3)n3ncnc23)cc1 [Compound 20, 4-(8-(4-((1S,4S)-5-isopropyl-2,5-diazabicyclo[2.2.1]heptan-2-yl)phenylamino)-[1,2,4]triazolo[1,5-a]pyrazin-5-yl)pyridin-2(1H)-one]",> 1000
3,"CC(C)N1C[C@@H]2C[C@H]1CN2c1ccc(Nc2ncc(-c3noc(C(N)=O)n3)n3ncnc23)cc1 [Compound 23, 3-(8-(4-((1S,4S)-5-isopropyl-2,5-diazabicyclo[2.2.1]heptan-2-yl)phenylamino)-[1,2,4]triazolo[1,5-a]pyrazin-5-yl)-1,2,4-oxadiazole-5-carboxamide]",> 1000
4,"CC(C)N1C[C@@H]2C[C@H]1CN2c1ccc(Nc2ncc(-c3ccc4c(c3)CNC4=O)n3ncnc23)cc1 [Compound 1, 5-{8-[4-((1S,4S)-5-Isopropyl-2,5-diaza-bicyclo[2.2.1]hept-2-yl)-phenylamino]-[1,2,4]triazolo[1,5-a]pyrazin-5-yl}-2,3-dihydro-isoindol-1-one]",0.01 to 100
5,"CC(C)N1C[C@@H]2C[C@H]1CN2c1ccc(Nc2ncc(-c3coc(C(N)=O)c3)n3ncnc23)cc1 [Compound 2, 4-{8-[4-((1S,4S)-5-Isopropyl-2,5-diaza-bicyclo[2.2.1]hept-2-yl)-phenylamino]-[1,2,4]triazolo[1,5-a]pyrazin-5-yl}-furan-2-carboxamide]",0.01 to 100
6,"CC(C)(C)N1C[C@@H]2C[C@H]1CN2c1ccc(Nc2ncc(-c3cc(C(N)=O)n[nH]3)n3ncnc23)cc1 [Compound 17, 5-{8-(4-((1S,4S)-5-tert-butyl-2,5-diazabicyclo[2.2.1]heptan-2-yl)phenyl-amino)-[1,2,4]triazolo[1,5-a]pyrazin-5-yl}-1H-pyrazole-3-carboxylic acid amide]",101 to 500
7,"CC(C)N1C[C@@H]2C[C@H]1CN2c1ccc(Nc2ncc(-c3ccc4c(c3)CNC4=O)n3ncnc23)cn1 [Compound 18, 5-{8-(6-((1S,4S)-5-isopropyl-2,5-diazabicyclo[2.2.1]heptan-2-yl)pyridin-3-ylamino)-[1,2,4]triazolo[1,5-a]pyrazin-5-yl}-2,3-dihydro-isoindol-1-one]",101 to 500
8,"CC(C)N1C[C@@H]2C[C@H]1CN2c1ccc(Nc2ncc(-c3cc(C(N)=O)n[nH]3)n3ncnc23)cc1 [Compound 5, 5-{8-(4-((1S,4S)-5-isopropyl-2,5-diazabicyclo[2.2.1]heptan-2-yl)phenyl-amino)-[1,2,4]triazolo[1,5-a]pyrazin-5-yl}-1H-pyrazole-3-carboxamide]",101 to 500
9,"CC(C)N1C2CCC1CN(c1ccc(Nc3ncc(-c4coc(C(N)=O)c4)n4ncnc34)cc1)C2 [Compound 12, 4-{8-(4-(8-isopropyl-3,8-diazabicyclo[3.2.1]octan-3-yl)phenylamino)[1,2,4]-triazolo[1,5-a]pyrazin-5-yl}-furan-2-carboxamide]",0.01 to 100
10,"CC(C)(C)N1C[C@@H]2C[C@H]1CN2c1ccc(Nc2ncc(-c3coc(C(N)=O)c3)n3ncnc23)cc1 [Compound 3, 4-{8-[4-((1S,4S)-5-tert-Butyl-2,5-diaza-bicyclo[2.2.1]hept-2-yl)-phenylamino]-[1,2,4]triazolo[1,5-a]pyrazin-5-yl}-furan-2-carboxamide]",0.01 to 100
11,"CC(C)N1CC2CCC(C1)N2c1ccc(Nc2ncc(-c3coc(C(N)=O)c3)n3ccnc23)cc1 [Compound 11, 4-{8-(4-(3-isopropyl-3,8-diazabicyclo[3.2.1]octan-8-yl)phenylamino)-imidazo[1,2-a]pyrazin-5-yl}-furan-2-carboxamide]",101 to 500
12,"CCOc1cc(-c2cnc(Nc3ccc(N4C[C@@H]5C[C@H]4CN5C(C)C)cc3)c3nccn23)ccn1 [Compound 22, 5-(2-ethoxypyridin-4-yl)-N-(4-((1S,4S)-5-isopropyl-2,5-diazabicyclo[2.2.1]heptan-2-yl)phenyl)imidazo[1,2-a]pyrazin-8-amine]",> 1000
13,"CC(C)N1C[C@@H]2C[C@H]1CN2c1ccc(Nc2ncc(-c3cc(C(N)=O)n[nH]3)n3ncnc23)cn1 [Compound 15, 5-{8-(6-((1S,4S)-5-isopropyl-2,5-diazabicyclo[2.2.1]heptan-2-yl)pyridin-3-ylamino)-[1,2,4]triazolo[1,5-a]pyrazin-5-yl}-1H-pyrazole-3-carboxylic acid amide]",101 to 500
14,"CCOC(=O)c1cc(-c2cnc(Nc3ccc(N4C[C@@H]5C[C@H]4CN5C(C)C)cc3)c3ncnn23)[nH]n1 [Compound 21, Ethyl 5-(8-(4-((1S,4S)-5-isopropyl-2,5-diazabicyclo[2.2.1]heptan-2-yl)phenylamino)-[1,2,4]triazolo[1,5-a]pyrazin-5-yl)-1H-pyrazole-3-carboxylate]",> 1000
15,"CCOc1cc(-c2cnc(Nc3ccc(N4C[C@@H]5C[C@H]4CN5C(C)C)cc3)c3ncnn23)ccn1 [Compound 19, 5-(2-ethoxypyridin-4-yl)-N-(4-((1S,4S)-5-isopropyl-2,5-diazabicyclo[2.2.1]heptan-2-yl)phenyl)-[1,2,4]triazolo[1,5-a]pyrazin-8-amine]",> 1000

# Continued, values first:
row,IC50 [nM],Structure (SMILES)
1,0.01 to 100,"CC(C)N1C[C@@H]2C[C@H]1CN2c1cccc(Nc2ncc(-c3coc(C(N)=O)c3)n3ncnc23)c1 [Compound 24, 4-(8-(3-((1S,4S)-5-isopropyl-2,5-diazabicyclo[2.2.1]heptan-2-yl)phenylamino)-[1,2,4]triazolo[1,5-a]pyrazin-5-yl)furan-2-carboxamide]"
2,101 to 500,"CC(C)N1C[C@@H]2C[C@H]1CN2c1ccc(Nc2ncc(-c3coc(C(N)=O)c3)n3ccnc23)cc1 [Compound 4, 4-{8-[4-((1S,4S)-5-Isopropyl-2,5-diaza-bicyclo[2.2.1]hept-2-yl)-phenylamino]-imidazo[1,2-a]pyrazin-5-yl}-furan-2-carboxamide]"
3,101 to 500,"CC(C)N1C[C@@H]2C[C@H]1CN2c1ccc(Nc2ncc(-c3cc[nH]c(=O)c3)n3ccnc23)cc1 [Compound 8, 4-{8-(4-((1S,4S)-5-isopropyl-2,5-diazabicyclo[2.2.1]heptan-2-yl)phenyl-amino)imidazo[1,2-a]pyrazin-5-yl}-1H-pyridin-2-one]"
4,0.01 to 100,"CC(C)N1CC2CCC1CN2c1ccc(Nc2ncc(-c3coc(C(N)=O)c3)n3ncnc23)cc1 (stereo not shown) [Compound 9, 4-{8-(4-(5-isopropyl-2,5-diazabicyclo[2.2.2]octan-2-yl)phenylamino)[1,2,4]-triazolo[1,5-a]pyrazin-5-yl}-furan-2-carboxamide]"
5,101 to 500,"CC(C)N1C[C@@H]2C[C@H]1CN2c1cccc(Nc2ncc(-c3coc(C(N)=O)c3)n3ccnc23)c1 [Compound 25, 4-(8-(3-((1S,4S)-5-isopropyl-2,5-diazabicyclo[2.2.1]heptan-2-yl)phenylamino)imidazo[1,2-a]pyrazin-5-yl)furan-2-carboxamide]"
6,101 to 500,"CC(C)N1C[C@@H]2C[C@H]1CN2c1cccc(Nc2ncc(-c3ccc4c(c3)CNC4=O)n3ncnc23)c1 [Compound 26, 5-(8-(3-((1S,4S)-5-isopropyl-2,5-diazabicyclo[2.2.1]heptan-2-yl)phenylamino)-[1,2,4]triazolo[1,5-a]pyrazin-5-yl)isoindolin-1-one]"
7,101 to 500,CC(C)(C)N1C[C@@H]2C[C@H]1CN2c1ccc(Nc2ncc(-c3coc(C(N)=O)c3)n3ccnc23)cc1 [Compound 6]
